Laboratory results from patent US20240279207A1, “SUBSTITUTED ACYL SULFONAMIDES FOR TREATING CANCER” (The Broad Institute, Inc., priority 2020, published 2024).
Where two headings read alike, the source gives them in different places.

Key:
[1] = test system: ESR1 transcription in MVLN cells; assay: MVLN reporter assay: repression of ESR1 transcription (luciferase signal); assay type: cell-based; details: Homo sapiens, luciferase signal after 24 h, read-out: MVLN reporter assay, IC50 [M] (arithmetic mean)
From the text: KAT6A controls transcription of the ESR1 gene in breast cancer cells. Compound treatment that interferes with this mechanism was quantified using MVLN cells. These cells constitutively express the ER and are stably transfected with the luciferase (LUC) reporter gene and the corresponding hormone responsive element derived from the 5′-flanking region of the Xenopus Vitellogenin A2 gene (Pons et al., 1990, Demirpense et al., 1993, Joyeux et al., 1993). The repressive effect on ERα transcription activity of a test chemical is directly related to the luciferase measured in the lysate of treated MVLN cells. […] Each sample was prepared as duplicate and rim wells were excluded. For luciferase signal determination 100 μl of a 1:1 mixture of Steadylite plus (Perkin Elmer; 6016759) and assay medium was added after 24 h for 15 minutes and measured in Victor X3 (Perkin Elmer). To exclude any effects caused by cell loss during the treatment, cell density was determined using Alamar Blue (Invitrogen; DAL1100). Prior to the luciferase measurement 10 μl Alamar Blue were added to each well and the plates were incubated for 2 h in the incubator. Then fluorescence was measured with Victor X3 (Perkin Elmer) at 530 nm/590 nm.

[2] = molecular target: T1, Recombinant human His-tagged Kat6a protein (amino acids 194-810) (Homo sapiens, UniProt Q92794); assay: Kat6a activity assay (TR-FRET, acetylation of Histone-H4-derived peptide); assay type: biochemical; details: 60 mins at 22° C., 220 nM H4 peptide, 600 nM Acetyl Coenzyme A, read-out: KAT6A - DPF/HAT domain IC50 [mol/l] (arithmetic mean)
T1 construct: Kat6a protein (amino acids 194-810); His
T1 sequence (Q92794 194-810): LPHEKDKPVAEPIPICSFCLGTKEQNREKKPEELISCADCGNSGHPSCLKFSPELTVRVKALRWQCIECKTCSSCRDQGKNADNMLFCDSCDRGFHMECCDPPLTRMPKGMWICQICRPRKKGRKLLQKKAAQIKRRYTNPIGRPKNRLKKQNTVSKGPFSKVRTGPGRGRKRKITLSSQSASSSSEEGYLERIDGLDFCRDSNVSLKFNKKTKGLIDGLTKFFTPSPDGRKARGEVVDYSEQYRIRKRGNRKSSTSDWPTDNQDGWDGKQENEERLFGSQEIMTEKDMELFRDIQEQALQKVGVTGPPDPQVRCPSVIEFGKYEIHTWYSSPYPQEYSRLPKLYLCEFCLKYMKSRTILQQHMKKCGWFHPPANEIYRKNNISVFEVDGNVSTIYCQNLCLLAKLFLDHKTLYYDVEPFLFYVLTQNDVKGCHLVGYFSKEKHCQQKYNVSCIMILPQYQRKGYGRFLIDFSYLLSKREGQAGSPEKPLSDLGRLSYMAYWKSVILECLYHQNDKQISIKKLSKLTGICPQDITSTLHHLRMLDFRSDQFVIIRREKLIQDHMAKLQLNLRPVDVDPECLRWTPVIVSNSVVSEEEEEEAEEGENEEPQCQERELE
Description: Kat6a inhibitory activities of the compounds described in the present invention were quantified using a Fluorescence Resonance Energy Transfer (TR-FRET) assay which measures acetylation of a synthetic, biotinylated Histone-H4-derived peptide by the enzyme.
In this case 50 nl DMSO were used instead of compounds. […] IC50 values were determined by regression analysis based on a 4 parameter equation (minimum, maximum, ICM, Hill; Y=Max+(Min−Max)/(1+(X/ICso) Hill) using the Screener Software (Genedata).

Compound | IC50 ([1]; MVLN, 24 h) [M] | IC50 [2] [nM] | IC50 [1] [M]
CCCOc1cccc(OC(C)(C)C)c1S(=O)(=O)NC(=O)c1cc2c(F)cc(N3CCC3)cc2o1 [Example 83, 6-(Azetidin-1-yl)-N-(2-tert-butoxy-6-propoxybenzene-1-sulfonyl)-4-fluoro-1-benzofuran-2-carboxamide] | 2.85e-07 | 26.7 | –
CCc1csc(C)c1S(=O)(=O)NC(=O)c1cc2c(F)cc(N3CCC3)cc2o1 [Example 36, 6-(Azetidin-1-yl)-N-(4-ethyl-2-methylthiophene-3-sulfonyl)-4-fluoro-1-benzofuran-2-carboxamide] | 6.04e-07 | 367 | –
CCN(CC)C(=O)Oc1ccccc1S(=O)(=O)NC(=O)c1cc2c(F)cc(N3CCC3)cc2o1 [Example 76, 2-{[6-(Azetidin-1-yl)-4-fluoro-1-benzofuran-2-carbonyl]sulfamoyl}phenyl diethylcarbamate] | – | 111 | 2.82e-06
O=C(NS(=O)(=O)c1ccccc1/C=C/C(F)(F)F)c1cc2c(F)cc(N3CCC3)cc2o1 [Example 55, 6-(Azetidin-1-yl)-4-fluoro-N-{2-[(1E)-3,3,3-trifluoroprop-1-en-1-yl]benzene-1-sulfonyl}-1-benzofuran-2-carboxamide] | 1.69e-06 | 106 | –
CCOc1cc(F)ccc1S(=O)(=O)NC(=O)c1cc2c(F)cc(N3CCC3)cc2o1 [Example 208, 6-(Azetidin-1-yl)-N-(2-ethoxy-4-fluoro-phenyl)sulfonyl-4-fluoro-benzofuran-2-carboxamide] | 7.78e-08 | 45.4 | –
CCCc1cccc(C(F)(F)F)c1S(=O)(=O)NC(=O)c1cc2c(F)cc(N3CCC3)cc2o1 [Example 58, 6-(Azetidin-1-yl)-4-fluoro-N-[2-propyl-6-(trifluoromethyl)benzene-1-sulfonyl]-1-benzofuran-2-carboxamide] | 3.87e-06 | 315 | –
Cc1ccc(F)c(S(=O)(=O)NC(=O)c2cc3c(F)cc(N4CCC4)cc3o2)c1 [Example 43, 6-(Azetidin-1-yl)-4-fluoro-N-(2-fluoro-5-methylbenzene-1-sulfonyl)-1-benzofuran-2-carboxamide] | 9.91e-07 | 218 | –
O=C(NS(=O)(=O)c1ccc(O)c2ccccc12)c1cc2c(F)cc(N3CCC3)cc2o1 [Example 106, 6-(Azetidin-1-yl)-4-fluoro-N-(4-hydroxynaphthalene-1-sulfonyl)-1-benzofuran-2-carboxamide] | > 2e-05 | > 20000 | –
CCS(=O)(=O)c1nc2ccccn2c1S(=O)(=O)NC(=O)c1cc2c(F)cc(N3CCC3)cc2o1 [Example 167, 6-(Azetidin-1-yl)-N-[2-(ethanesulfonyl)imidazo[1,2-a]pyridine-3-sulfonyl]-4-fluoro-1-benzofuran-2-carboxamide] | > 2e-05 | 517 | –
CCOCc1ccc(Cl)c(S(=O)(=O)NC(=O)c2cc3c(F)cc(N4CCC4)cc3o2)c1 [Example 54, 6-(Azetidin-1-yl)-N-[2-chloro-5-(ethoxymethyl)benzene-1-sulfonyl]-4-fluoro-1-benzofuran-2-carboxamide] | 1.72e-06 | 135 | –
Cc1ccc(F)c(S(=O)(=O)NC(=O)c2cc3c(F)cc(N4CCC4)cc3o2)c1F [Example 88, 6-(Azetidin-1-yl)-N-(2,6-difluoro-3-methylbenzene-1-sulfonyl)-4-fluoro-1-benzofuran-2-carboxamide] | 4.45e-07 | 127 | –
CCc1cccc(OCC2CC2)c1S(=O)(=O)NC(=O)c1cc2c(F)cc(N3CCC3)cc2o1 [Example 33, 6-(Azetidin-1-yl)-N-[2-(cyclopropylmethoxy)-6-ethylbenzene-1-sulfonyl]-4-fluoro-1-benzofuran-2-carboxamide] | 5.37e-07 | 73.5 | –
CCOc1ccc(OC(F)(F)F)cc1S(=O)(=O)NC(=O)c1cc2c(F)cc(N3CCC3)cc2o1 [Example 212, 6-(Azetidin-1-yl)-N-[2-ethoxy-5-(trifluoromethoxy)phenyl]sulfonyl-4-fluoro-benzofuran-2-carboxamide] | 1.59e-07 | 36.4 | –
CCOc1cccc(OCC(F)F)c1S(=O)(=O)NC(=O)c1cc2c(F)cc(N3CCC3)cc2o1 [Example 81, 6-(Azetidin-1-yl)-N-[2-(2,2-difluoroethoxy)-6-ethoxybenzene-1-sulfonyl]-4-fluoro-1-benzofuran-2-carboxamide] | 1.57e-07 | 18 | –
Cc1ccc(S(=O)(=O)NC(=O)c2cc3c(F)cc(N4CCC4)cc3o2)c2ccncc12 [Example 191, 6-(Azetidin-1-yl)-4-fluoro-N-(8-methylisoquinoline-5-sulfonyl)-1-benzofuran-2-carboxamide] | 4.99e-06 | 301 | –
COc1ccc2cccnc2c1S(=O)(=O)NC(=O)c1cc2c(F)cc(N3CCC3)cc2o1 [Example 8, 6-(Azetidin-1-yl)-4-fluoro-N-(7-methoxyquinoline-8-sulfonyl)-1-benzofuran-2-carboxamide] | 1.25e-07 | 21 | –
CC(C)c1ccc(C(C)C)c(S(=O)(=O)NC(=O)c2cc3c(F)cc(N4CCC4)cc3o2)c1 [Example 30, 6-(Azetidin-1-yl)-N-[2,5-di(propan-2-yl)benzene-1-sulfonyl]-4-fluoro-1-benzofuran-2-carboxamide] | 4.18e-07 | 24.7 | –
Cn1nc(S(=O)(=O)NC(=O)c2cc3c(F)cc(N4CCC4)cc3o2)c2ccc(C(F)(F)F)nc21 [Example 144, 6-(Azetidin-1-yl)-4-fluoro-N-[1-methyl-6-(trifluoromethyl)-1H-pyrazolo[3,4-b]pyridine-3-sulfonyl]-1-benzofuran-2-carboxamide] | 7.93e-06 | 548 | –
CCOc1ccccc1S(=O)(=O)NC(=O)c1cc2ccc(N3CC(OCC)C3)cc2o1 [Example 121, 6-(3-Ethoxyazetidin-1-yl)-N-(2-ethoxybenzene-1-sulfonyl)-1-benzofuran-2-carboxamide] | > 2e-05 | 13400 | –
Cc1nc(N)c(S(=O)(=O)NC(=O)c2cc3c(F)cc(N4CCC4)cc3o2)c(C)c1Cl [Example 104, N-(2-amino-5-chloro-4,6-dimethylpyridine-3-sulfonyl)-6-(azetidin-1-yl)-4-fluoro-1-benzofuran-2-carboxamide] | 1.05e-05 | 793 | –
CCOc1ccccc1S(=O)(=O)NC(=O)c1cc2c(F)cc(N3CCC3CNC(=O)OC)cc2o1 (racemic) [Example 105, Methyl {[1-{2-[(2-ethoxybenzene-1-sulfonyl)carbamoyl]-4-fluoro-1-benzofuran-6-yl}azetidin-2-yl]methyl}carbamate (rac)] | > 2e-05 | 1120 | –
CCc1cccc(OC(C)C)c1S(=O)(=O)NC(=O)c1cc2c(F)cc(N3CCC3)cc2o1 [Example 84, 6-(Azetidin-1-yl)-N-{2-ethyl-6-[(propan-2-yl)oxy]benzene-1-sulfonyl}-4-fluoro-1-benzofuran-2-carboxamide] | 5.73e-07 | 42.7 | –
COc1ccc(C2=CCN(C(=O)OC(C)(C)C)CC2)cc1S(=O)(=O)NC(=O)c1cc2c(F)cc(N3CCC3)cc2o1 [Example 197, tert-butyl 4-(3-{[6-(azetidin-1-yl)-4-fluoro-1-benzofuran-2-carbonyl]sulfamoyl}-4-methoxyphenyl)-3,6-dihydropyridine-1(2H)-carboxylate] | 1.62e-07 | – | –
CC(C)Nc1cccc(F)c1S(=O)(=O)NC(=O)c1cc2c(F)cc(N3CCC3)cc2o1 [Example 42, 6-(Azetidin-1-yl)-4-fluoro-N-{2-fluoro-6-[(propan-2-yl)amino]benzene-1-sulfonyl}-1-benzofuran-2-carboxamide] | 8.64e-07 | 179 | –
Cc1nc(-c2ccc(S(=O)(=O)NC(=O)c3cc4c(F)cc(N5CC(F)C5)cc4o3)cc2)cs1 [Example 115, 4-Fluoro-6-(3-fluoroazetidin-1-yl)-N-[4-(2-methyl-1,3-thiazol-4-yl)benzene-1-sulfonyl]-1-benzofuran-2-carboxamide] | 3.81e-06 | 563 | –
Cc1ncccc1S(=O)(=O)NC(=O)c1cc2c(F)cc(N3CCC3)cc2o1 [Example 94, 6-(Azetidin-1-yl)-4-fluoro-N-(2-methylpyridine-3-sulfonyl)-1-benzofuran-2-carboxamide] | > 2e-05 | 1510 | –
CC(C)Oc1cccc(Br)c1S(=O)(=O)NC(=O)c1cc2c(F)cc(N3CCC3)cc2o1 [Example 39, 6-(Azetidin-1-yl)-N-{2-bromo-6-[(propan-2-yl)oxy]benzene-1-sulfonyl}-4-fluoro-1-benzofuran-2-carboxamide] | 7.88e-07 | – | –
CN(C(=O)Oc1ccccc1S(=O)(=O)NC(=O)c1cc2c(F)cc(N3CCC3)cc2o1)c1ccccc1 [Example 62, 2-{[6-(Azetidin-1-yl)-4-fluoro-1-benzofuran-2-carbonyl]sulfamoyl}phenyl methyl(phenyl)carbamate] | – | – | 6.43e-06
